Measurements published in patent US4529603A, “Pharmaceutical composition and method for treatment of psychomotor excitement” (priority 1983, dated 1985).
Structures can show the parent of a compound that is named as a salt.

Key:
[1] = tested on: quantity of spontaneous movement of mice increased by administration of methamphetamine; test: Spontaneous movement of mice with methamphetamine; type: in vivo
Experimental: The same experimental system of measuring spontaneous movement quantity of mice as used in Experimental Example 1 was employed in this Example.
In FIG. 2, the axis of ordinates indicates the quantity of spontaneous movement and the axis of abscissa indicates the time (minute) when the time at which the administration of methamphetamine (1.4 mg/kg) alone or methamphetamine with DL-erythro-DOPS (200 mg/kg) was carried out was taken as zero point.

[2] = major tranquilizers; cited from earlier work
[3] = tested on: quantity of spontaneous movement of mice administered with tranylcypromine; test: Spontaneous movement of mice administered with tranylcypromine; type: in vivo
Experimental: The same experimental system of measuring the quantity of spontaneous movement of mice as used in Experimental Example 1 was used in this Example.
In FIG. 3, the axis of ordinates indicates the quantity of spontaneous movement and the axis of abscissae indicates the lapse of time (minute) and the arrows indicate the time when administration was conducted.

[4] = tested on: ptosis induced by tetrabenazine; test: Ptosis induced by tetrabenazine; type: in vivo; details: for effects of erythro-DOPS on combination use of a peripheral decarboxylase inhibitor: combination with erythro-DOPS; for Ptosis score: tetrabenazine 40 mg/kg i.p., 3 hrs, Mean ± S.E., N 6
Experimental: L-threo-DOPS (100 mg/kg and 200 mg/kg) was intraperitoneally injected at the same time with the intraperitoneal injection of tetrabenazine (40 mg/kg) and at 1 hr. after the intraperitoneal injection of benserazide or carbidopa.
The score of ptosis was measured by the method of Fukushima et al. (Arch. Int. Pharmacodyn. Therp. 229 163 1977) at 3 hrs. after the injection of tetrabenazine.

[5] = tested on: mania; details: cited from earlier work
[6] = tested on: aromatic L-amino acid decarboxylase; details: decarboxylation by aromatic L-amino acid decarboxylase; cited from earlier work
[7] = continuously in blood; cited from earlier work
[8] = tested on: quantity of spontaneous movement of mice; test: Spontaneous movement of mice pretreated with PIH (Animex); type: in vivo
Experimental: Three mice as one group were put in a movement measuring box of Animex and quantity of spontaneous movements of the mice were measured at given intervals of time.
Thereafter, they gradually became calm and crouched after about 30-40 minutes resulting in much decrease in their spontaneous moving quantity. β-phenylisopropylhydrazine hydrochloride (Catron, trade name) (referred to as "PIH" hereinafter) which is a monoamine oxidase inhibitor (MAOI) was intraperitoneally administered to the mice in an amount of 50 mg/kg.
Separately, 200 mg/kg of DL-erythro-DOPS was intraperitoneally injected to the mice and the effects thereof were examined.
In FIG. 1 the axis of ordinates indicates the quantity of movement (counts/5 min.) and the axis of abscissae indicates the time (minute) from the beginning of measurement of the quantity of spontaneous movement which was after 30 minutes from administration of DL-erythro-DOPS.

[9] = tested on: Amine content in the brain; test: Amine content in the brain of PIH administered mice; type: in vivo; details: PIH 50 mg/kg i.p., 17 hours, mean of three mice ±SD
Experimental: A physiological saline or PIH (50 mg/kg) was intraperitoneally injected to mice and content of amine in the brain was measured after 17 hours.
The measurement was substantially in accordance with the method of Ogasawara et al (J. Chromatography 180, 119). The content was expressed as ng/g wet weight and shown as mean value of the three mice ±SD.

[10] = tested on: Amine content in the brain; test: Amine content in the brain of mice administered with erythro-DOPS; type: in vivo; details: for Dopamine content in the brain / Noradrenaline (NA) content in the brain / Serotonin content in the brain: mean of three mice ±SD
Experimental: PIH (50 mg/kg) was previously administered to mice and after lapse of 17 hours, physiological saline or DL-erythro-DOPS (200 mg/kg) was intraperitoneally injected to the mice.
Amine content in the brain was measured after a lapse of 30 minutes from the injection.
The content was expressed as ng/g wet weight and shown as mean value of the three mice±SD.

[11] = animal experiments; U.S. Pat. No. 3,920,728; cited from earlier work
[12] = tested on: harmaline induced tremor; details: Japanese Patent Publication No. 125630/1977; cited from earlier work
[13] = tested on: orthostatic hypotension; details: U.S. Pat. No. 4,330,558; cited from earlier work
[14] = tested on: freezing phenomenon in parkinson's disease; details: UK Patent Publication No. 2106388; cited from earlier work
[15] = Acute oral toxicity (LD50); details: mouse, in vivo
[16] = PIH 50 mg/kg i.p., 16 hours after administration
[17] = PIH 50 mg/kg + physiological saline, 30 minutes after injection
[18] = DL-erythro-DOPS 200 mg/kg i.p. together with methamphetamine 1.4 mg/kg
[19] = DL-erythro-DOPS given 180 minutes after tranylcypromine
[20] = PIH 50 mg/kg 17 hours before + DL-erythro-DOPS 200 mg/kg i.p., 30 minutes

CN[C@@H](C)Cc1ccccc1 [methamphetamine]
quantity of spontaneous movement ([1]; methamphetamine 1.4 mg/kg i.p.): abruptly increased | time to restoration to nearly the former state ([1]; methamphetamine 1.4 mg/kg i.p.): 2 h | time after which quantity of spontaneous movement began to decrease ([1]; methamphetamine 1.4 mg/kg i.p., from the injection): 50 min

CN(C)CCCN1c2ccccc2Sc2ccc(Cl)cc21 [Chloropromazine]
tranquilizing effects [2]: strong tranquilizing effects

N[C@@H]1C[C@H]1c1ccccc1 (relative stereo) [tranylcyromine]
spontaneous movement ([3]; 50 mg/kg i.p.): gradually increased | time to maximum spontaneous movement ([3]; 50 mg/kg i.p., after administration, then maintained): 120 min

COc1ccc2c(c1)N(C[C@H](C)CN(C)C)c1ccccc1S2 [levomepromazine]
tranquilizing effects [2]: strong tranquilizing effects

NC(CO)C(=O)NNCc1ccc(O)c(O)c1O (stereo not drawn) [benserazide]
effects of erythro-DOPS on combination use of a peripheral decarboxylase inhibitor [4]: significantly enhanced

O=C(O)O [lithium carbonate]
time before a noticeable effect ([5]; treatment with lithium carbonate): 3 to 8 days

NC(=O)N1c2ccccc2C=Cc2ccccc21 [carbamazepine]
antimanic effect ([5]; human, in vivo): has an antimanic effect

O=C(CCCN1CCC(O)(c2ccc(Cl)cc2)CC1)c1ccc(F)cc1 [haloperidol]
tranquilizing effects [2]: strong tranquilizing effects

N[C@H](C(=O)O)C(O)c1ccc(O)c(O)c1 (stereo partly drawn) [L-DOPS]
conversion to noradrenaline in vivo [6]: converted to noradrenaline

lithium
lithium concentration in blood at which lithium poisoning will occur [7]: ≥ 2.0 mEq/l

CC(Cc1ccccc1)NN (stereo not drawn) [PIH, β-phenylisopropylhydrazine hydrochloride]
quantity of spontaneous movement [8, 16]: tendencies of increase in the spontaneous movement quantity | time required before the mice became calm [8, 16]: increase in time required before the mice became calm | Dopamine content in the brain ([9]; **: P <0.05): 1026 ± 122 ng/g wet weight | Noradrenaline (NA) content in the brain ([9]; *: P <0.005): 1085 ± 79 ng/g wet weight | Serotonin content in the brain ([9]; *: P <0.005): 1260 ± 39 ng/g wet weight | Dopamine content in the brain [10, 17]: 941 ± 56 ng/g wet weight | Noradrenaline (NA) content in the brain [10, 17]: 832 ± 88 ng/g wet weight | Serotonin content in the brain [10, 17]: 942 ± 133 ng/g wet weight

N[C@H](C(=O)O)[C@H](O)c1ccc(O)c(O)c1 (relative stereo) [threo-DOPS]
antihypertensive or antidepressive effect [11]: has an antihypertensive or antidepressive effect | effect on harmaline induced tremor [12]: inhibitory effect | treatment of orthostatic hypotension [13]: clinically effective | treatment of freezing phenomenon in parkinson's disease [14]: clinically effective

N[C@H](C(=O)O)[C@@H](O)c1ccc(O)c(O)c1 (racemic) [L-erythro-DOPS, L or DL-erythro-3-(3,4-dihydroxyphenyl)serine]
Ptosis score ([4]; 100 mg/kg i.p. alone): 2.0 ± 0.4 | Ptosis score ([4]; 200 mg/kg i.p. alone): 2.3 ± 0.5 | conversion to noradrenaline in vivo [6]: to d-NA

N[C@H](C(=O)O)[C@@H](O)c1ccc(O)c(O)c1 (relative stereo) [erythro-DOPS, erythro-3-(3,4-dihydroxyphenyl)serine]
suppression of psychomotor excitement ([8]; summary of Experimental Examples 1 to 3): suppresses psychomotor excitement | change of contents of amines in the brain (NA, dopamine, serotonin) ([10]; Experimental Examples 4 and 5): only NA significantly increases | ptosis induced by tetrabenazine ([4]; administration of erythro-DOPS): enhanced | antihypertensive or antidepressive effect [11]: has an antihypertensive or antidepressive effect | Toxicity [15]: extremely low | LD50 ([15]; po): ≥ 5000 mg/kg

C[C@@](Cc1ccc(O)c(O)c1)(NN)C(=O)O [carbidopa]
effects of erythro-DOPS on combination use of a peripheral decarboxylase inhibitor [4]: significantly enhanced

N[C@H](C(=O)O)[C@@H](O)c1ccc(O)c(O)c1 (relative stereo) [DL-erythro-DOPS, DL-erythro-3-(3,4-dihydroxyphenyl)serine]
quantity of spontaneous movement ([8]; DL-erythro-DOPS 200 mg/kg i.p., mice pretreated with PIH (50 mg/kg)): conspicuous decrease in the quantity of spontaneous movement | action of methamphetamine to increase the quantity of spontaneous movement [1, 18]: retrained | increase of the quantity of movement [1, 18]: not noticeable | quantity of movement [3, 19]: began to decrease | time after which the quantity of movement began to decrease [3, 19]: about 20 minutes | duration of decrease in quantity of movement ([3]; DL-erythro-DOPS given 180 minutes after tranylcypromine, then returned to original increased state): 30 to 90 min | Dopamine content in the brain [10, 20]: 895 ± 52 ng/g wet weight | Serotonin content in the brain [10, 20]: 821 ± 92 ng/g wet weight | Noradrenaline (NA) content in the brain ([10]; PIH 50 mg/kg 17 hours before + DL-erythro-DOPS 200 mg/kg i.p., 30 minutes, *: P <0.005): 1476 ± 105 ng/g wet weight

N[C@H](C(=O)O)[C@H](O)c1ccc(O)c(O)c1 [L-threo-DOPS]
conversion to noradrenaline in vivo [6]: converted to l-NA
